Results taken from PubChem BioAssay AID2060487 (Molecular Pharmacology Branch, DTP, NCI, 2025).
Values joined by “and” are separate entries in the source; they are usually repeats but may differ in a detail not shown here. Identical values can stand only once.

Tested on: 997537-175-T-J1-PDC complex spheroid viability
Assay: Anticancer human tumor 997537-175-T-J1-PDC patient-derived colon adenocarcinoma cell line growth inhibition [GQUAD]
Conditions: for viability, T/C: stronger effect = lower value
Source text: DNA G-quadruplex Stabilizer Agents in Combinations in Complex Spheroids
A high-throughput screen of multi-cell type tumor spheroids was designed to identify active combinations of DNA G-quadruplex stabilizer agents and targeted small molecules. Complex spheroids include a stromal component modeled by human endothelial cells (HUVEC) and fibroblasts modeled by human mesenchymal stem cells (MSCs). The concentration ranges selected for each drug and investigational agent were based upon clinically achievable concentrations if the clinical Cmax of the agent was known.
Compounds. The drugs and investigational agents: pidnarulex (CX-5461; NSC782164), APTO-253 (NSC789042), BRACO-19 (NSC847499), peposertib (NSC802822), ceralasertib (NSC780249), elimusertib (NSC800525), camonsertib (NSC841442), AZD-1390 (NSC803789), olaparib (NSC753686), talazoparib (NSC767125), ART-558 (NSC835418), sotorasib (NSC818433), MRTX-1133 (NSC836407), SN-38 (NSC673596), topotecan (NSC609699), etoposide (NSC141540), doxorubicin (NSC123127), gemcitabine (NSC613327), 5-fluorouracil (NSC19893), paclitaxel (NSC125973), vemurafenib (NSC761431), panobinostat (NSC761190), R-306465 (JNJ-16241199; NSC773264), adavosertib (NSC754352), TP-3654 (NSC805149), carboplatin (NSC241240), KSQ-4279 (NSC840948), and staurosporine (NSC755774) were obtained from the National Cancer Institute (NCI) Developmental Therapeutics Program Chemical Repository (34). The FDA-approved anticancer drug set is available from the NCI Developmental Therapeutics Program. […] The stock solutions were prepared in dimethyl sulfoxide (DMSO, Sigma-Aldrich, St. Louis, MO, cat. D2650) at 800-fold the tested concentration and stored at -70 degrees C prior to their use. All drugs and investigational agents were tested over a range starting from a high concentration at or near the clinical Cmax and decreasing in half-log increments. If the clinical Cmax for an agent had not been determined, the highest concentration tested was 10 microM.
2.3 Cell Culture. All cells were maintained in an incubator at 37 degrees C and 5% CO2 with 95% humidity. The PDC lines were cultured according to standard operating procedures established by the NCI PDMR. All PDCs were thawed and cultured in Matrigel-coated flasks prepared with a working solution of 1X Ham's F-12 nutrient mix, without supplementation (Invitrogen, cat. 11765054), 100 U/mL penicillin-streptomycin (Invitrogen, cat. 15140122), and 2.5% Matrigel (Corning Inc., cat. 354248) for the first three passages. The 857933-349-R-J2-PDC line was cultured in 6C/Colon 1B media, which includes advanced DMEM/F-12 (Thermo Fisher Scientific, cat. 12634028), 10 mM HEPES (Thermo Fisher Scientific, cat. 15630080), 1X GlutaMAX supplement (Thermo Fisher Scientific, cat. 35050061), 0.1 mg/mL primocin (InvivoGen, cat. ant-pm-2), 10% defined fetal bovine serum, heat inactivated (HyClone Laboratories Inc., cat. SH30070.03HI), 50% L-WRN conditioned media (ATCC, cat. CRL-3276), 1.25 mM N-Acetyl-L-cysteine (Sigma-Aldrich, cat. A9165), 10 mM nicotinamide (Sigma-Aldrich, cat. N0636), 1X B-27 supplement (Thermo Fisher Scientific, cat. 17504044), 1X N-2 supplement (Thermo Fisher Scientific, cat. 17502048), 10 microM Y-27632 dihydrochloride (Tocris Bioscience, cat. 1254), and 50 ng/mL human EGF recombinant protein (Thermo Fisher Scientific, cat. PHG0311). The 485176-168-R4-J1-PDC line was cultured in Panc media, which includes all 6C/Colon 1B media components plus 100 ng/mL human FGF-10 (Thermo Fisher Scientific, cat. 100-26), 500 nM SB-431542 (Selleckchem, cat. S1067), and gastrin (Tocris, cat. 3006).
[…]

[1] = curve of first compound, second compound 0.0316 µM
[2] = curve of first compound, second compound 0.1 µM
[3] = curve of first compound, second compound 0.316 µM
[4] = curve of first compound, second compound 1 µM
[5] = curve of first compound, second compound 3.16 µM
[6] = curve of first compound, second compound 10 µM
[7] = second compound 0.0316 µM, first compound 0.0316 µM
[8] = second compound 0.0316 µM, first compound 0.1 µM
[9] = second compound 0.0316 µM, first compound 0.316 µM
[10] = second compound 0.0316 µM, first compound 1 µM
[11] = second compound 0.0316 µM, first compound 3.16 µM
[12] = second compound 0.0316 µM, first compound 10 µM
[13] = second compound 0.1 µM, first compound 0.0316 µM
[14] = second compound 0.1 µM, first compound 0.1 µM
[15] = second compound 0.1 µM, first compound 0.316 µM
[16] = second compound 0.1 µM, first compound 1 µM
[17] = second compound 0.1 µM, first compound 3.16 µM
[18] = second compound 0.1 µM, first compound 10 µM
[19] = second compound 0.316 µM, first compound 0.0316 µM
[20] = second compound 0.316 µM, first compound 0.1 µM
[21] = second compound 0.316 µM, first compound 0.316 µM
[22] = second compound 0.316 µM, first compound 1 µM
[23] = second compound 0.316 µM, first compound 3.16 µM
[24] = second compound 0.316 µM, first compound 10 µM
[25] = second compound 1 µM, first compound 0.0316 µM
[26] = second compound 1 µM, first compound 0.1 µM
[27] = second compound 1 µM, first compound 0.316 µM
[28] = second compound 1 µM, first compound 1 µM
[29] = second compound 1 µM, first compound 3.16 µM
[30] = second compound 1 µM, first compound 10 µM
[31] = second compound 3.16 µM, first compound 0.0316 µM
[32] = second compound 3.16 µM, first compound 0.1 µM
[33] = second compound 3.16 µM, first compound 0.316 µM
[34] = second compound 3.16 µM, first compound 1 µM
[35] = second compound 3.16 µM, first compound 3.16 µM
[36] = second compound 3.16 µM, first compound 10 µM
[37] = second compound 10 µM, first compound 0.0316 µM
[38] = second compound 10 µM, first compound 0.1 µM
[39] = second compound 10 µM, first compound 0.316 µM
[40] = second compound 10 µM, first compound 1 µM
[41] = second compound 10 µM, first compound 3.16 µM
[42] = second compound 10 µM, first compound 10 µM
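Further: spheroids exposed to the agents for 7 days.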
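Wherever viability, T/C is given: 100% = DMSO vehicle control viability.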

COc1ncnc(C2CC2)c1-c1ncc2cnn(Cc3ccc(-c4nc(C(F)(F)F)cn4C(C)C)cc3)c2n1 + Cc1[nH]c2ccc(F)cc2c1-c1nc2c3cccnc3c3ncccc3c2[nH]1
IC50 [1]: 9.19 µM
IC50 [2]: > 10 µM
IC50 [3]: > 10 µM
IC50 [4]: 9.26 µM
IC50 [5]: 8.15 µM
IC50 [6]: > 10 µM
viability, T/C [7]: 100%
viability, T/C [8]: 98.9%
viability, T/C [9]: 103%
viability, T/C [10]: 93.1%
viability, T/C [11]: 98.8%
viability, T/C [12]: 46.2%
viability, T/C [13]: 100%
viability, T/C [14]: 107%
viability, T/C [15]: 102%
viability, T/C [16]: 96.3%
viability, T/C [17]: 87.9%
viability, T/C [18]: 70.5%
viability, T/C [19]: 104%
viability, T/C [20]: 101%
viability, T/C [21]: 100%
viability, T/C [22]: 96.7%
viability, T/C [23]: 91.8%
viability, T/C [24]: 50.9%
viability, T/C [25]: 91.7%
viability, T/C [26]: 103%
viability, T/C [27]: 101%
viability, T/C [28]: 93%
viability, T/C [29]: 92.8%
viability, T/C [30]: 46.8%
viability, T/C [31]: 83.1%
viability, T/C [32]: 86.5%
viability, T/C [33]: 87.2%
viability, T/C [34]: 84.2%
viability, T/C [35]: 76.7%
viability, T/C [36]: 44.2%
viability, T/C [37]: 85.3%
viability, T/C [38]: 87.8%
viability, T/C [39]: 89.1%
viability, T/C [40]: 89.5%
viability, T/C [41]: 72.9%
viability, T/C [42]: 59.6%

Nc1ccn(C2OC(CO)C(O)C2(F)F)c(=O)n1 (stereo unspecified)
viability, T/C (compound 0.0316 µM): 103% (2×) and 99.3%
viability, T/C (compound 0.1 µM): 92.3% and 96% and 108%
viability, T/C (compound 0.316 µM): 93.5% and 99.5% and 101%
viability, T/C (compound 1 µM): 91.9% and 64.2% and 92.5%
viability, T/C (compound 3.16 µM): 88.4% and 55.3% and 62%
viability, T/C (compound 10 µM): 85.4% and 64.9% and 84.9%
IC50 (curve of compound): > 10 µM

COc1cccc2c1C(=O)c1c(O)c3c(c(O)c1C2=O)CC(O)(C(=O)CO)CC3OC1CC(N)C(O)C(C)O1 (stereo unspecified) + Cc1cnc(CNC(=O)c2c(=O)c3ccc(N4CCCN(C)CC4)nc3n3c2sc2ccccc23)cn1
IC50 [1]: > 10 µM
IC50 [2]: > 10 µM
IC50 [3]: 8.33 µM
IC50 [4]: 7.33 µM
IC50 [5]: 5.89 µM
IC50 [6]: 6.25 µM
viability, T/C [7]: 112%
viability, T/C [8]: 74.6%
viability, T/C [9]: 97.5%
viability, T/C [10]: 93.6%
viability, T/C [11]: 80%
viability, T/C [12]: 52.8%
viability, T/C [13]: 107%
viability, T/C [14]: 76.5%
viability, T/C [15]: 94%
viability, T/C [16]: 90.8%
viability, T/C [17]: 86.5%
viability, T/C [18]: 55.2%
viability, T/C [19]: 82.3%
viability, T/C [20]: 90.4%
viability, T/C [21]: 115%
viability, T/C [22]: 98.5%
viability, T/C [23]: 87%
viability, T/C [24]: 42.5%
viability, T/C [25]: 91.5%
viability, T/C [26]: 68.4%
viability, T/C [27]: 116%
viability, T/C [28]: 106%
viability, T/C [29]: 88%
viability, T/C [30]: 36%
viability, T/C [31]: 69.7%
viability, T/C [32]: 81.3%
viability, T/C [33]: 78%
viability, T/C [34]: 103%
viability, T/C [35]: 93.4%
viability, T/C [36]: 20.1%
viability, T/C [37]: 75.8%
viability, T/C [38]: 77.4%
viability, T/C [39]: 109%
viability, T/C [40]: 91.9%
viability, T/C [41]: 93.2%
viability, T/C [42]: 22.7%
